Test results as given in patent US8492442B2, “Medicinal composition, food or drink having effect of enhancing parasympathetic nervous activity” (Suntory Holdings Limited, priority 2007, dated 2013).
Entries after “also recorded” stand apart in the source; their conditions may differ.

Key:
[1] = system: kidney sympathetic nervous activity; assay: Rat kidney sympathetic nervous activity after transduodenal administration (electrical discharge recording); assay type: in vivo; settings: male Wister rats, urethane-anesthesia
Description: In these experiments, use was made of male Wister rats weighing about 300 to 350 g which had been preliminarily fed in a thermostatic chamber (24° C.) with a light-dark cycle of 12-hour intervals (under illumination from 8:00 to 20:00) for 1 week or longer. A single rat was employed for each nervous experiment. The animals were fed with a feed (MF: Oriental Yeast) and water ad libitum. The autonomic nervous activity were examined by fasting the rats for 5 hours on the day of the experiment and then subjecting to an abdominal surgery under urethane-anesthesia (1 g/kg, i.p.). Then, the effects of the transduodenal administration of L-phenyl lactic acid and D-phenyl lactic acid (10 μg or 100 μg) on the kidney sympathetic nervous activity were measured in accordance with the method reported by T. Yamano et al., Neurosci. Lett. 313:78-82 (2001), A. Niijima et al., Autonom. Neurosci.: Basic & Clinical 97:99-102 (2002) and M. Tanida et al., Am. J. Physiol: Regulatory, Integrative and Comparative Physiology 288:R447-R455 (2005). Namely, the sympathetic nerve projecting toward the kidney was cut before the organ and the central side was placed on a silver electrode. Thus, a change in the electrical activity was monitored. To prevent dryness, the electrode had been preliminarily dipped in a mixture of liquid paraffin and petroleum jelly for a sufficient period of time. From the initiation of the surgery to the completion of the measurement, a tube was inserted into the respiratory tract for the management of the airway. The body temperature (rat rectal temperature) was maintained at 35±0.5° C. with the use of a heater. The transduodenal administration was conducted by dissolving L-phenyl lactic acid or D-phenyl lactic acid in physiological saline to give a concentration of 10 μg/2 ml or 100 μg/2 ml, and administering 2 ml/animal of each solution at a rate of 1 ml/min through a polyethylene tube inserted into the duodenum. Electrical nervous activity thus obtained were amplified with a condenser type differential amplifier, monitored with an oscilloscope and recorded on a magnetic tape. To separate the raw data from the background noise, all of the nervous activities were converted into standard pulses by use of a slicer and a window discriminator before analyzing. Discharge frequencies were indicated on a pen recorder by using a rate meter at a reset time of 5 seconds. The data was analyzed based on the average discharge frequency per 5 seconds (pulse/5 sec) and expressed in percentage by referring the level before the administration as to 100%. A group with the administration of physiological saline was employed as a control.

blood pressure = assay: Rat blood pressure after transduodenal administration (femoral artery cannula, transducer); assay type: in vivo; settings: 100 μg, FIG. 4
[2] = system: stomach vagal (parasympathetic) nervous activity; assay: Rat stomach vagal (parasympathetic) nervous activity after transduodenal administration; assay type: in vivo; settings: 100 μg, FIG. 5
[3] = system: methicillin-resistant Staphylococcus aureus; settings: phenyl lactic acid produced by use of a lactic acid bacterium; cited from earlier work
[4] = system: pathogenic Escherichia coli O-157; settings: phenyl lactic acid produced by use of a lactic acid bacterium; cited from earlier work
Aspergillus niger = settings: etc.; cited from earlier work

| Compound | effect on kidney sympathetic nervous activity ([1]; 10 μg/animal, FIG. 2) | effect on kidney sympathetic nervous activity ([1]; 100 μg/animal, FIG. 3) | effect on rat blood pressure (blood pressure) | effect on rat stomach vagal (parasympathetic) nervous activity [2] | antibacterial effect [3] | antibacterial effect [4] | antifungal activity (Aspergillus niger) |
| --- | --- | --- | --- | --- | --- | --- | --- |
| O=C(O)[C@H](O)Cc1ccccc1 [D-phenyl lactic acid, D-β-3-phenyl lactic acid] | enhanced | reduced | hypotensive effects |  |  |  |  |
| O=C(O)[C@@H](O)Cc1ccccc1 [L-phenyl lactic acid, L-β-3-phenyl lactic acid] | little effect | reduced; also recorded: higher reducing effect | hypotensive effects | enhancement |  |  |  |
| O=C(O)C(O)Cc1ccccc1 (stereo not shown) [phenyl lactic acid, 2-hydroxy-3-phenyl propionic acid] |  |  |  |  | antibacterial effect | antibacterial effect | antifungal activity |
